# pEC50: −log10 of the molar value. Where two headings read alike, the source gives them in different places.
# What was measured:
# in vivo = conditions: mouse, ip
# erythrocyte membrane = experiment: stabilising effect on the erythrocyte membrane (haemolysis in hypotonic medium and with heat); assay type: cell-based, rabbit
# Source text: Nature (1970) 225, Mar. 21, 1150-1151.
# [1] = LD50 toxicity in the mouse (Table I; text); conditions: for change of LD50 of the cation against the reference salt: expressed as cation
# [2] = tested on: convulsions caused by pentetrazol; experiment: anti-convulsivant action on convulsions caused by pentetrazol; assay type: in vivo, mouse
# Procedure: The compounds according to the invention also present an anti-convulsivant action on the convulsions caused in the mouse by pentetrazol: After administration of pentetrazol, the time of appearance of the convulsions and the time of appearance of death is measured, in the animals which previously received, by the intraperitoneal route, the product to be tested, comparatively to controls receiving only pentetrazol.
# [3] = mouse, in vivo, ip
# [4] = rectal temperature (hypothermia); assay type: in vivo; conditions: rat
# hypermotility by ethanol = experiment: antagonism of the hypermotility caused by ethanol (Cott-Carlsson Engel Lindqvist test); assay type: in vivo, mouse; conditions: for antagonism of ethanol hypermotility / sedative activity, ranking: mouse, per os, comparison in words
# Procedure: The motility of the mice placed in the actimeter is recorded immediately after this injection, every 5 minutes, for 60 minutes. The percentage of variation of the motility of the mice treated with ethanol with respect to the controls receiving water is determined, and of mice treated with the product to be tested and with ethanol with respect to mice receiving only ethanol.
# [5] = tested on: muscle fatigued by application of lactic acid; experiment: test of the muscle fatigued by application of lactic acid; assay type: in vivo; conditions: comparison within the series
# Source text: (§1) It is furthermore suitable for the manufacture of aqueous solutions.
# narcosis by ethanol = experiment: potentialization of narcosis by ethanol; assay type: in vivo; conditions: mouse, oral route, comparison within the series
# Source text: as §1
# [6] = LD50 expressed in Mg++ or Li+, intraperitoneal route
# [7] = rabbit red cells in vitro, hypotonic medium pH 7.4, 53° C., read-out: ED50, stabilising effect on the erythrocyte membrane
compound,measurement,setting,value
CC(=O)NCCCS(=O)(=O)[O-].[Li+],LD50,"in vivo; LD50, male mouse",4260 mg/kg
same,LD50,in vivo; [6],157 mg/kg
same,pEC50,"erythrocyte membrane; Oryctolagus cuniculus, Erythrocyte, pH 7.4, read-out: ED50, stabilising effect on the erythrocyte membrane",2.00
same,change of LD50 of the cation against the reference salt,"[1]; mouse, intraperitoneal route",significantly increased
"CC(=O)NCCCS(=O)(=O)O [Calcium acetylhomotaurinate, calcium N-acetylhomotaurinate]",time of appearance of death,[2]; 400 mg/kg i.p.,significant antagonism (xx)
same,time of appearance of convulsions,[2]; 800 mg/kg i.p.,significant
same,time of appearance of death,[2]; 800 mg/kg i.p.,significant antagonism (xx)
same,time of appearance of the convulsions,[2]; 1000 mg/kg i.p.,very significant (xxx)
same,"anti-convulsivant activity, comparison","[2]; mouse, i.p., in words",greater than that of Mg acetylhomotaurinate
same,LD50,[3],1870 mg/kg
same,LD50 expressed as cation,[3],186 mg cation/kg
same,pEC50,erythrocyte membrane; [7],3.00
same,ranking of hypothermic activity,[4],more active than that of magnesium
same,"antagonism of the hypermotility by ethanol, result",hypermotility by ethanol; 80 mg per os,0
same,"antagonism of the hypermotility by ethanol, result",hypermotility by ethanol; 100 mg per os,antagonism
same,"antagonism of the hypermotility by ethanol, significance",hypermotility by ethanol; 100 mg per os,xxx
same,"antagonism of the hypermotility by ethanol, result",hypermotility by ethanol; 200 mg per os,antagonism
same,"antagonism of the hypermotility by ethanol, significance",hypermotility by ethanol; 200 mg per os,xx
same,"antagonism of the hypermotility by ethanol, result","hypermotility by ethanol; 200 mg per os, listed as calcium acetylhomotaurinate",significant antagonism
same,"antagonism of the hypermotility by ethanol, result",hypermotility by ethanol; 400 mg per os,antagonism
same,"antagonism of the hypermotility by ethanol, result","hypermotility by ethanol; 400 mg per os, listed as calcium acetylhomotaurinate",significant antagonism
same,"antagonism of the hypermotility by ethanol, result",hypermotility by ethanol; 800 mg per os,antagonism
same,"antagonism of the hypermotility by ethanol, significance",hypermotility by ethanol; 800 mg per os,xx (shorter)
same,"antagonism of the hypermotility by ethanol, result","hypermotility by ethanol; 800 mg per os, listed as calcium acetylhomotaurinate",this effect is confirmed at the dose of 800 mg/kg but does not appear to be superior to that recorded at 400 mg
same,"antagonism of ethanol hypermotility / sedative activity, ranking",hypermotility by ethanol; listed as Ca acetylhomotaurinate,greater than that of Mg acetylhomotaurinate
"CC(=O)NCCS(=O)(=O)O [Calcium acetyltaurinate, reference compound]",time of appearance of death,"[2]; 1000 mg/kg i.p., listed as Ca acetyltaurinate",significantly (x)
same,"antagonism of the hypermotility by ethanol, result",hypermotility by ethanol; 80 mg per os,0
same,"antagonism of the hypermotility by ethanol, result",hypermotility by ethanol; 800 mg per os,antagonism
same,"antagonism of the hypermotility by ethanol, significance",hypermotility by ethanol; 800 mg per os,x to xx according
same,LD50 by oral route,"[1]; oral route, footnote of Table I",13090 mg/kg
"NCCCS(=O)(=O)O [Homotaurine, 3-aminopropanesulfonic acid]",pEC50,"erythrocyte membrane; Oryctolagus cuniculus, Erythrocyte, pH 7.4, rabbit red cells in vitro, hypotonic medium pH 7.4, 53° C., read-out: ED50, stabilising effect on the erythrocyte membrane",1.82
same,effect on rectal temperature,[4]; homotaurine by intraperitoneal route,does not modify the rectal temperature
"CC(=O)NCCCS(=O)(=O)O [Magnesium acetylhomotaurinate, magnesium N-acetylhomotaurinate]",time of appearance of convulsions,[2]; 800 mg/kg i.p.,significant
same,LD50,"in vivo; LD50, male mouse",2570 mg/kg
same,LD50,in vivo; [6],161 mg/kg
same,pEC50,erythrocyte membrane; [7],2.00
same,"antagonism of the hypermotility by ethanol, result",hypermotility by ethanol; 80 mg per os,antagonism
same,"antagonism of the hypermotility by ethanol, result",hypermotility by ethanol; 100 mg per os,antagonism
same,"antagonism of the hypermotility by ethanol, significance",hypermotility by ethanol; 100 mg per os,not significant
same,"antagonism of the hypermotility by ethanol, result",hypermotility by ethanol; 200 mg per os,antagonism
same,"antagonism of the hypermotility by ethanol, result","hypermotility by ethanol; 200 mg per os, listed as magnesium acetylhomotaurinate",slightly less than that of the calcium salt
same,"antagonism of the hypermotility by ethanol, result",hypermotility by ethanol; 400 mg per os,antagonism
same,"antagonism of the hypermotility by ethanol, result","hypermotility by ethanol; 400 mg per os, listed as magnesium acetylhomotaurinate",slightly less than that of the calcium salt
same,change of LD50 of the cation against the reference salt,"[1]; mouse, intraperitoneal route",significantly increased
"CC(=O)NCCS(=O)(=O)O [Magnesium acetyltaurinate, reference compound]",time of appearance of the convulsions,[2]; 1000 mg/kg i.p.,significantly (xx)
same,time of appearance of death,"[2]; 1000 mg/kg i.p., listed as Mg acetyltaurinate",significantly (xx)
same,"antagonism of the hypermotility by ethanol, result",hypermotility by ethanol; 100 mg per os,antagonism
same,"antagonism of the hypermotility by ethanol, significance",hypermotility by ethanol; 100 mg per os,not significant
same,"antagonism of the hypermotility by ethanol, result",hypermotility by ethanol; 200 mg per os,antagonism
same,"antagonism of the hypermotility by ethanol, significance",hypermotility by ethanol; 200 mg per os,not significant
same,"antagonism of the hypermotility by ethanol, result",hypermotility by ethanol; 400 mg per os,0
"CC(=O)NCCCS(=O)(=O)O [Potassium acetylhomotaurinate, 3-acetylaminopropanesulfonate of potassium]",time of appearance of death,[2]; 315 mg/kg i.p.,"increase, without reaching the level of significance"
same,time of appearance of the convulsions,[2]; 315 mg/kg i.p.,"increase, without reaching the level of significance"
same,LD50,[3],4120 mg/kg
same,LD50 expressed as cation,[3],733 mg cation/kg
same,activity in the test of the muscle fatigued by lactic acid,[5],the most active
same,pEC50,erythrocyte membrane; [7],2.30
"CC(=O)NCCCS(=O)(=O)O [Sodium acetylhomotaurinate, 3-acetylaminopropanesulfonate of sodium]",time of appearance of death,[2]; 292 mg/kg i.p.,"increase, without reaching the level of significance"
same,time of appearance of the convulsions,[2]; 292 mg/kg i.p.,"increase, without reaching the level of significance"
same,LD50,[3],greater than 5 g/kg
same,pEC50,erythrocyte membrane; [7],2.30
same,potentialization of narcosis by ethanol,narcosis by ethanol,top of the series
same,"antagonism of the hypermotility by ethanol, result",hypermotility by ethanol; 400 mg per os,slight antagonism which appears at the 50th minute of observation
same,"antagonism of the hypermotility by ethanol, significance",hypermotility by ethanol; 400 mg per os,not significant
same,"antagonism of the hypermotility by ethanol, result","hypermotility by ethanol; 400 mg per os, listed as Sodium acetyhomotaurinate",slight anta-
same,"antagonism of ethanol hypermotility / sedative activity, ranking",hypermotility by ethanol,least active
"CC(=O)NCCS(=O)(=O)[O-].[Na+] [Sodium acetyltaurinate, reference compound]","antagonism of the hypermotility by ethanol, result",hypermotility by ethanol; 400 mg per os,0
"[Cl-].[Cl-].[Mg+2] [magnesium chloride, reference compound]",LD50 expressed in Mg++ or Li+,"[1]; mouse, intraperitoneal route",94 mg

# From patent US4355043A, “Novel derivatives of 3-aminopropanesulfonic acid having a reinforced activity on membrane” (Les Laboratoires Meram, priority 1979, dated 1982)
